{"source": "paper PMC10003956", "about": "“To the Understanding of Catalysis by D-Amino Acid Transaminases: A Case Study of the Enzyme from Aminobacterium colombiense” (Molecules, 2023)", "key": {"AmicoTA [1]": {"biological_target": "T1, AmicoTA (Aminobacterium colombiense, UniProt D5EHC5)", "T1 construct": "gene Amico_1844; N-terminal His6-TEV tag kept for kinetics, cut for crystals; E. coli Rosetta (DE3) pLysS", "T1 sequence (D5EHC5 entry or part of it)": "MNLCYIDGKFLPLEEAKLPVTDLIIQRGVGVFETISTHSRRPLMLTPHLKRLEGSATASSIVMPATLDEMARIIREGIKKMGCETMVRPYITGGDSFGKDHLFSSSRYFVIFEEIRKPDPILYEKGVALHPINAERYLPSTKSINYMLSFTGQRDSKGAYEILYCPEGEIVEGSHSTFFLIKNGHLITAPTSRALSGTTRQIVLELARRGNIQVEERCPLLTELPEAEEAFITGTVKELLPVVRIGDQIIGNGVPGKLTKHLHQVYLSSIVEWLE", "assay": "half-reaction of PLP form, absorbance at […] nm", "assay_type": "binding"}, "AmicoTA [2]": {"biological_target": "T1, AmicoTA", "assay": "X-ray crystal structure, […] Å", "assay_type": "binding", "conditions": "covalent, Schiff base with K142; tag-free protein"}}, "data": [{"smiles": "CC(C)C[C@@H](N)C(=O)O", "note": "[D-leucine]", "values": [{"measurement": "Kd", "setting": "AmicoTA [1]", "value": "100 ± 10", "unit": "mM"}]}, {"smiles": "Cc1ncc(COP(=O)(O)O)c(C=O)c1O", "note": "[PLP]", "values": [{"measurement": "X-ray crystal structure, 1.9 Å", "setting": "AmicoTA [2]", "value": "bound via Schiff base linkage with K142"}]}, {"smiles": "C[C@@H](N)C(=O)O", "note": "[D-alanine]", "values": [{"measurement": "Kd", "setting": "AmicoTA [1]", "value": "50 ± 6", "unit": "mM"}]}, {"smiles": "N[C@H](Cc1ccccc1)C(=O)O", "note": "[D-phenylalanine]", "values": [{"measurement": "Kd", "setting": "AmicoTA [1]", "value": "19 ± 3", "unit": "mM"}]}, {"smiles": "N[C@H](CCC(=O)O)C(=O)O", "note": "[D-glutamate]", "values": [{"measurement": "Kd", "setting": "AmicoTA [1]", "value": "2.1 ± 0.2", "unit": "mM"}]}]}
